61 compounds from patent US12168019B1, “8-hydroxy quinoline derivatives for enhancing telomerase reverse transcriptase (TERT) expression” (Sierra Sciences, Inc., priority 2010, dated 2024) can be followed below.

The test has as its system human TERT expression (hTERT mRNA transcripts). The experiment in a line: Quantitative real-time RT-PCR of hTERT mRNA transcripts in compound-treated cells. Also: test concentration or dose not given here. In kind it is cell-based. An excerpt:
Telomerase is a ribonucleoprotein complex composed of the catalytic protein subunit (human telomerase reverse transcriptase or hTERT) and the RNA template. hTERT expression level can be measured by PCR.
Quantitative Reverse Transcription PCR can be run according to procedures outlined in Yajima et al. (Yajima, T. et al. Quantitative Reverse Transcription-PCR Assay of the RNA Component of Human Telomerase Using the TaqMan Fluorogenic Detection System Clinical Chemistry, 44:12, 2441-2445, 1998).
The principle of real-time PCR was first described by Heid et al. (Heid C. A., Stevens J., Livak K. J., Williams P. M. Real time quantitative PCR. Genome Res., 6: 986-994, 1996). Briefly, amplification of the target sequence is monitored per PCR cycle by detecting the fluorescence signal emitted by an internal probe that is degraded by the 5′ nuclease activity of the Taq polymerase. The emission signal accumulates in each sample, and the Ct required to reach a given fluorescence threshold is determined (Ct stands for Cycle Threshold and is a measure of the number of PCR cycles that are required to amplify a target—thus, a lower Ct score means that there is more abundant hTERT mRNA). Thus, the C1 value of a sample inversely correlates to the quantity of the starting cDNA which correlates to the number of mRNA transcripts. Using the cDNA of known quantity, a standard curve can be generated and used to determine the starting amount of mRNA transcripts based on the […] of each sample.
Quantitative real-time PCR can be done on cDNA from test compound-treated and nontreated cells by use of a ABI Prism 7900 Sequence Detection System (PE Applied Biosystems, Foster City, CA) following the Assays-on-Demand protocol (PE Applied Biosystems, Foster City, CA). Quantitative data can be analyzed using the Sequence Detection System software version 2.1 (PE Applied Biosystems).
The following compounds were tested in assays designed to identify compounds that enhance human TERT expression. The compounds turned on human TERT expression in these assays.
On to `COc1cccc(C(=O)NC(/C=C/c2ccccc2)c2cc(Cl)c3cccnc3c2O)c1` (stereo not shown) [Compound 1017], for which the “Average Number of hTERT Transcripts” value came out at 96.98.

In the case of `CCCCC(=O)NC(c1ccco1)c1cc([N+](=O)[O-])c2cccnc2c1O` (stereo not shown) [Compound 1055], the “Average Number of hTERT Transcripts” value stood at 28.89.

On to `O=C(CCc1ccccc1)NC(c1ccc2c(c1)OCO2)c1ccc2cccnc2c1O` (stereo not shown) [Compound 1065], for which the “Average Number of hTERT Transcripts” value is 24.47.

`CCCCC(=O)NC(/C=C/c1ccccc1)c1cc([N+](=O)[O-])c2cccnc2c1O` (stereo not shown) [Compound 1069]: the “Average Number of hTERT Transcripts” value came to 101.8.

Take `CCC(=O)NC(c1ccccc1OC)c1cc(Cl)c2cccnc2c1O` (stereo not shown) [Compound 1043]: the “Average Number of hTERT Transcripts” value is listed as 15.13.

For `O=C(NC(c1ccccc1)c1ccc2cccnc2c1O)c1ccccc1` (stereo not shown) [Compound 1086], the “Average Number of hTERT Transcripts” value amounted to 48.77.

As to `CCCCC(=O)NC(c1ccccc1Cl)c1cc([N+](=O)[O-])c2cccnc2c1O` (stereo not shown) [Compound 1031], the “Average Number of hTERT Transcripts” value is listed as 44.8.

As to `COc1ccc(C(=O)NC(c2ccco2)c2cc(Cl)c3cccnc3c2O)cc1` (stereo not shown) [Compound 1012], the “Average Number of hTERT Transcripts” value was 12.01.

Regarding `CC(C)C(=O)NC(c1ccc2c(c1)OCO2)c1cc([N+](=O)[O-])c2cccnc2c1O` (stereo not shown) [Compound 1064], the “Average Number of hTERT Transcripts” value came out at 52.74.

As for `CCCC(=O)NC(c1ccc(O)c(OCC)c1)c1cc([N+](=O)[O-])c2cccnc2c1O` (stereo not shown) [Compound 1036], the “Average Number of hTERT Transcripts” value worked out at 65.

On to `CC(C)OCc1cc(CN2CCCCC2)c(O)c2ncccc12` [Compound 1102], for which the “Average Number of hTERT Transcripts” value was found to be 351.44.

Take `COC(=O)c1ccc(C(Nc2cc(C)ccn2)c2ccc3ccc(C)nc3c2O)cc1` (stereo not shown) [Compound 1008]: the “Average Number of hTERT Transcripts” value came to 43.18.

Consider `CCC(=O)NC(c1ccco1)c1cc(Cl)c2cccnc2c1O` (stereo not shown) [Compound 1039], for which the “Average Number of hTERT Transcripts” value was 30.9.

Consider `CCCC(=O)NC(c1ccc(N(C)C)cc1)c1cc(Cl)c2cccnc2c1O` (stereo not shown) [Compound 1066], for which the “Average Number of hTERT Transcripts” value is recorded as 43.68.

Regarding `CC(=O)NC(c1ccccc1)c1cc([N+](=O)[O-])c2cccnc2c1O` (stereo not shown) [Compound 1050], the “Average Number of hTERT Transcripts” value is given as 47.68.

As for `COc1ccc(C(NC(=O)C(C)C)c2cc([N+](=O)[O-])c3cccnc3c2O)cc1OC` (stereo not shown) [Compound 1112], the “Average Number of hTERT Transcripts” value came out at 58.99.

`Cc1ccc2ccc(C(Nc3ccccn3)c3ccccc3Cl)c(O)c2n1` (stereo not shown) [Compound 1111]: the “Average Number of hTERT Transcripts” value worked out at 35.20.

For `CCC(=O)NC(c1ccccc1OC)c1cc([N+](=O)[O-])c2cccnc2c1O` (stereo not shown) [Compound 1051], the “Average Number of hTERT Transcripts” value amounted to 45.24.

For the compound `COCc1cc(CN2CCCC2)c(O)c2ncccc12` [Compound 1097], the “Average Number of hTERT Transcripts” value turned out to be 77.36.

In the case of `Oc1c(I)cc(Cl)c2cccnc12` [Compound 1021], the “Average Number of hTERT Transcripts” value turned out to be 60.68.

Take `COc1ccc(C(NC(C)=O)c2ccc3cccnc3c2O)cc1OC` (stereo not shown) [Compound 1023]: the “Average Number of hTERT Transcripts” value turned out to be 160.65.

`O=S1(=O)CCC(N2COc3c(cc(Cl)c4cccnc34)C2)C1` (stereo not shown) [Compound 1107]: the “Average Number of hTERT Transcripts” value is 7.97.

As to `CCN(CC)Cc1ccc(O)c2ncccc12` [Compound 1096], the “Average Number of hTERT Transcripts” value is 48.25.

As to `CCCCC(=O)NC(c1cccs1)c1cc(Cl)c2cccnc2c1O` (stereo not shown) [Compound 1067], the “Average Number of hTERT Transcripts” value was 16.2.

With `CC1CCN(Cc2cc(COC(C)C)c3cccnc3c2O)CC1` [Compound 1103], the “Average Number of hTERT Transcripts” value is 70.5.

For `CC(=O)NC(c1ccc(Cl)cc1)c1cc([N+](=O)[O-])c2cccnc2c1O` (stereo not shown) [Compound 1037], the “Average Number of hTERT Transcripts” value turned out to be 55.41.

On to `Cc1ccnc(NC(c2cccc(Br)c2)c2ccc3ccc(C)nc3c2O)c1` (stereo not shown) [Compound 1083], for which the “Average Number of hTERT Transcripts” value came out at 18.44.

On to `CC(=O)NC(c1ccco1)c1cc([N+](=O)[O-])c2cccnc2c1O` (stereo not shown) [Compound 1034], for which the “Average Number of hTERT Transcripts” value came out at 44.71.

On to `CCC(=O)NC(/C=C/c1ccccc1)c1cc([N+](=O)[O-])c2cccnc2c1O` (stereo not shown) [Compound 1035], for which the “Average Number of hTERT Transcripts” value turned out to be 66.72.

`CCCCC(=O)NC(c1ccc(OC)cc1)c1cc(Cl)c2cccnc2c1O` (stereo not shown) [Compound 1061]: the “Average Number of hTERT Transcripts” value was 128.91.

Regarding `CC(C)C(=O)NC(c1ccco1)c1ccc2cccnc2c1O` (stereo not shown) [Compound 1087], the “Average Number of hTERT Transcripts” value was found to be 240.41.

On to `COc1cccc(C(=O)NC(c2ccc(OC)c(OC)c2)c2cc(Cl)c3cccnc3c2O)c1` (stereo not shown) [Compound 1013], for which the “Average Number of hTERT Transcripts” value is listed as 40.42.

Consider `CCOc1cc(C(NC(C)=O)c2cc([N+](=O)[O-])c3cccnc3c2O)ccc1O` (stereo not shown) [Compound 1033], for which the “Average Number of hTERT Transcripts” value is recorded as 28.91.

Turning to `CCCCC(=O)NC(c1cccs1)c1cc([N+](=O)[O-])c2cccnc2c1O` (stereo not shown) [Compound 1063], the “Average Number of hTERT Transcripts” value turned out to be 205.2.

Regarding `Cc1cc(NC(c2ccccn2)c2ccc3cccnc3c2O)no1` (stereo not shown) [Compound 1104], the “Average Number of hTERT Transcripts” value is listed as 19.27.

For the compound `CN1CCN(Cc2cc(COCc3ccccc3)c3cccnc3c2O)CC1` [Compound 1003], the “Average Number of hTERT Transcripts” value turned out to be 10.05.

As to `CC(C)C(=O)NC(c1ccc(C(C)C)cc1)c1cc([N+](=O)[O-])c2cccnc2c1O` (stereo not shown) [Compound 1071], the “Average Number of hTERT Transcripts” value is reported as 70.74.

As for `CCCCC(=O)NC(c1ccccc1OC)c1cc([N+](=O)[O-])c2cccnc2c1O` (stereo not shown) [Compound 1027], the “Average Number of hTERT Transcripts” value amounted to 19.72.

As for `CCCC(=O)NC(c1ccc(C(C)C)cc1)c1cc([N+](=O)[O-])c2cccnc2c1O` (stereo not shown) [Compound 1056], the “Average Number of hTERT Transcripts” value amounted to 62.15.

For the compound `CC(C)C(=O)NC(c1ccc(C(C)C)cc1)c1cc(Cl)c2cccnc2c1O` (stereo not shown) [Compound 1062], the “Average Number of hTERT Transcripts” value is 47.98.

In the case of `CCOCc1cc(CN2CCCCC2)c(O)c2ncccc12` [Compound 1099], the “Average Number of hTERT Transcripts” value came to 67.59.

Consider `Oc1c(C(Nc2ccccn2)c2cccc(Cl)c2Cl)ccc2cccnc12` (stereo not shown) [Compound 1006], for which the “Average Number of hTERT Transcripts” value came out at 25.82.

Consider `CC(=O)NC(c1ccc(C)cc1)c1ccc2cccnc2c1O` (stereo not shown) [Compound 1024], for which the “Average Number of hTERT Transcripts” value came out at 165.68.

Consider `CCCC(=O)NC(c1ccc(Cl)cc1)c1cc([N+](=O)[O-])c2cccnc2c1O` (stereo not shown) [Compound 1044], for which the “Average Number of hTERT Transcripts” value is 92.93.

With `CCC(=O)NC(c1ccc(C)cc1)c1cc([N+](=O)[O-])c2cccnc2c1O` (stereo not shown) [Compound 1049], the “Average Number of hTERT Transcripts” value is listed as 49.12.

On to `Oc1c(C(Nc2ccccn2)c2ccc(Cl)c(Cl)c2)ccc2cccnc12` (stereo not shown) [Compound 1082], for which the “Average Number of hTERT Transcripts” value is 7.54.

With `CCC(=O)NC(c1ccc(N(C)C)cc1)c1ccc2cccnc2c1O` (stereo not shown) [Compound 1001], the “Average Number of hTERT Transcripts” value stood at 12.47.

For `CCC(=O)NC(c1ccccc1Cl)c1cc([N+](=O)[O-])c2cccnc2c1O` (stereo not shown) [Compound 1074], the “Average Number of hTERT Transcripts” value came to 49.89.

For `COCc1cc(CN2CCCCC2)c(O)c2ncccc12` [Compound 1098], the “Average Number of hTERT Transcripts” value came to 102.7.

Regarding `O=C(CCc1ccccc1)NC(c1ccc(Cl)cc1)c1ccc2cccnc2c1O` (stereo not shown) [Compound 1109], the “Average Number of hTERT Transcripts” value was found to be 34.36.

For the compound `Cc1ccc2c(I)cc(I)c(O)c2n1` [Compound 1105], the “Average Number of hTERT Transcripts” value is reported as 51.56.

Turning to `Oc1c(Br)cc(Br)c2cccnc12` [Compound 1019], the “Average Number of hTERT Transcripts” value amounted to 271.75.

On to `Oc1c(C(Nc2ccccn2)c2c(Cl)cccc2Cl)ccc2cccnc12` (stereo not shown) [Compound 1009], for which the “Average Number of hTERT Transcripts” value is on record as 50.29.

`CC(=O)NC(c1ccc(C(C)C)cc1)c1ccc2cccnc2c1O` (stereo not shown) [Compound 1030]: the “Average Number of hTERT Transcripts” value amounted to 26.47.

`Cc1ccc2ccc(C(Nc3ccccn3)c3ccccc3Br)c(O)c2n1` (stereo not shown) [Compound 1108]: the “Average Number of hTERT Transcripts” value was 31.13.

Turning to `CCCOCc1cc(CN2CCN(C)CC2)c(O)c2ncccc12` [Compound 1101], the “Average Number of hTERT Transcripts” value turned out to be 24.8.

Turning to `Cc1ccnc(NC(c2cccc(Cl)c2)c2ccc3ccc(C)nc3c2O)c1` (stereo not shown) [Compound 1080], the “Average Number of hTERT Transcripts” value stood at 26.36.

For `CCN(CC)c1ccc(C(NC(=O)C(C)C)c2ccc3cccnc3c2O)cc1` (stereo not shown) [Compound 1060], the “Average Number of hTERT Transcripts” value was found to be 65.91.

As for `CCCCC(=O)NC(c1ccc(OC)cc1)c1cc([N+](=O)[O-])c2cccnc2c1O` (stereo not shown) [Compound 1040], the “Average Number of hTERT Transcripts” value came out at 25.16.

With `Cc1ccc(C(NC(=O)C(C)C)c2ccc3cccnc3c2O)cc1` (stereo not shown) [Compound 1088], the “Average Number of hTERT Transcripts” value came to 191.81.

As to `CC(=O)NC(c1ccc(Br)cc1)c1ccc2cccnc2c1O` (stereo not shown) [Compound 1022], the “Average Number of hTERT Transcripts” value amounted to 60.01.
